Data published in PubChem BioAssay (NCI).
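Interpolation was linear, between the two tested concentrations surrounding the appropriate level; five concentrations were tested over 48 hours in 96-well plates. TGI: total growth inhibition.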

Tests used:
Test in all cases: NCI-60 cell line screen, 48 h
HCT-15 colon = tested on: HCT-15 colon
M14 melanoma = tested on: M14 melanoma
HCC-2998 colon = tested on: HCC-2998 colon
HOP-92 NSCLC = tested on: HOP-92 NSCLC
EKVX NSCLC = tested on: EKVX NSCLC
HS 578T breast = tested on: HS 578T breast
KM12 colon = tested on: KM12 colon
HCT-116 colon = tested on: HCT-116 colon
NCI-H23 lung = tested on: NCI-H23 lung
HOP-62 NSCLC = tested on: HOP-62 NSCLC
SNB-75 CNS = tested on: SNB-75 CNS
MOLT-4 leukemia = tested on: MOLT-4 leukemia
MDA-MB-435 = tested on: MDA-MB-435
MALME-3M melanoma = tested on: MALME-3M melanoma
NCI/ADR-RES ovarian = tested on: NCI/ADR-RES ovarian
K-562 leukemia = tested on: K-562 leukemia
SF-268 CNS = tested on: SF-268 CNS
T-47D breast = tested on: T-47D breast
SK-OV-3 ovarian = tested on: SK-OV-3 ovarian
U251 CNS = tested on: U251 CNS
RPMI-8226 leukemia = tested on: RPMI-8226 leukemia
UACC-62 melanoma = tested on: UACC-62 melanoma
SF-295 CNS = tested on: SF-295 CNS
NCI-H522 lung = tested on: NCI-H522 lung
OVCAR-8 ovarian = tested on: OVCAR-8 ovarian
SK-MEL-28 melanoma = tested on: SK-MEL-28 melanoma
SN12C renal = tested on: SN12C renal
UO-31 renal = tested on: UO-31 renal
OVCAR-4 ovarian = tested on: OVCAR-4 ovarian
ACHN renal = tested on: ACHN renal
SNB-19 CNS = tested on: SNB-19 CNS
SK-MEL-5 melanoma = tested on: SK-MEL-5 melanoma
UACC-257 melanoma = tested on: UACC-257 melanoma
MCF7 breast = tested on: MCF7 breast
DU-145 prostate = tested on: DU-145 prostate
786-0 renal = tested on: 786-0 renal
A549 NSCLC = tested on: A549 NSCLC
SR leukemia = tested on: SR leukemia
CCRF-CEM leukemia = tested on: CCRF-CEM leukemia
COLO 205 colon = tested on: COLO 205 colon
LOX IMVI melanoma = tested on: LOX IMVI melanoma
MDA-MB-231 breast = tested on: MDA-MB-231 breast
TK-10 renal = tested on: TK-10 renal
NCI-H460 lung = tested on: NCI-H460 lung
CAKI-1 renal = tested on: CAKI-1 renal
HL-60(TB) leukemia = tested on: HL-60(TB) leukemia
MDA-N = tested on: MDA-N
RXF 393 renal = tested on: RXF 393 renal
OVCAR-5 ovarian = tested on: OVCAR-5 ovarian
A498 renal = tested on: A498 renal
PC-3 prostate = tested on: PC-3 prostate
SK-MEL-2 melanoma = tested on: SK-MEL-2 melanoma
HT29 colon = tested on: HT29 colon
IGROV1 ovarian = tested on: IGROV1 ovarian
NCI-H226 lung = tested on: NCI-H226 lung
OVCAR-3 ovarian = tested on: OVCAR-3 ovarian
SF-539 CNS = tested on: SF-539 CNS
SW-620 colon = tested on: SW-620 colon

## O=C1CCC[C@@H]2NC[C@@H](c3ccc4c(c3)OCO4)[C@H]12
HCT-15 colon
  TGI: > 25 µM
M14 melanoma
  TGI: > 25 µM
HCC-2998 colon
  TGI: > 25 µM
HOP-92 NSCLC
  TGI: > 25 µM
EKVX NSCLC
  TGI: > 25 µM
HS 578T breast
  TGI: > 25 µM
KM12 colon
  TGI: > 25 µM
HCT-116 colon
  TGI: > 25 µM
NCI-H23 lung
  TGI: > 25 µM
HOP-62 NSCLC
  TGI: > 25 µM
SNB-75 CNS
  TGI: > 25 µM
MOLT-4 leukemia
  TGI: > 25 µM
MDA-MB-435
  TGI: > 25 µM
MALME-3M melanoma
  TGI: > 25 µM
NCI/ADR-RES ovarian
  TGI: > 25 µM
K-562 leukemia
  TGI: > 25 µM
SF-268 CNS
  TGI: > 25 µM
T-47D breast
  TGI: > 25 µM
SK-OV-3 ovarian
  TGI: > 25 µM
U251 CNS
  TGI: > 25 µM
RPMI-8226 leukemia
  TGI: > 25 µM
UACC-62 melanoma
  TGI: > 25 µM
SF-295 CNS
  TGI: > 25 µM
NCI-H522 lung
  TGI: > 25 µM
OVCAR-8 ovarian
  TGI: > 25 µM
SK-MEL-28 melanoma
  TGI: > 25 µM
SN12C renal
  TGI: > 25 µM
UO-31 renal
  TGI: > 25 µM
OVCAR-4 ovarian
  TGI: > 25 µM
ACHN renal
  TGI: > 25 µM
SNB-19 CNS
  TGI: > 25 µM
SK-MEL-5 melanoma
  TGI: > 25 µM
UACC-257 melanoma
  TGI: > 25 µM
MCF7 breast
  TGI: > 25 µM
DU-145 prostate
  TGI: > 25 µM
786-0 renal
  TGI: > 25 µM
A549 NSCLC
  TGI: > 25 µM
SR leukemia
  TGI: > 25 µM
CCRF-CEM leukemia
  TGI: > 25 µM
COLO 205 colon
  TGI: > 25 µM
LOX IMVI melanoma
  TGI: > 25 µM
MDA-MB-231 breast
  TGI: > 25 µM
TK-10 renal
  TGI: > 25 µM
NCI-H460 lung
  TGI: > 25 µM
CAKI-1 renal
  TGI: > 25 µM
HL-60(TB) leukemia
  TGI: > 25 µM
MDA-N
  TGI: > 25 µM
RXF 393 renal
  TGI: > 25 µM
OVCAR-5 ovarian
  TGI: > 25 µM
A498 renal
  TGI: > 25 µM
PC-3 prostate
  TGI: > 25 µM
SK-MEL-2 melanoma
  TGI: > 25 µM
HT29 colon
  TGI: > 25 µM
IGROV1 ovarian
  TGI: > 25 µM
NCI-H226 lung
  TGI: > 25 µM

## CC(=O)OCC(C)C1=C(O)C(=O)C2(C)C/C=C(/C)CC/C=C(\C)CCC(O)C(C)CCC12 (stereo not given)
HCT-15 colon
  TGI: 36.2 µM
M14 melanoma
  TGI: 33.8 µM
HOP-92 NSCLC
  TGI: 33.7 µM
EKVX NSCLC
  TGI: 32 µM
HS 578T breast
  TGI: 52.9 µM
KM12 colon
  TGI: 28.7 µM
HCT-116 colon
  TGI: 32.8 µM
NCI-H23 lung
  TGI: 36.6 µM
HOP-62 NSCLC
  TGI: 32.8 µM
SNB-75 CNS
  TGI: 30.5 µM
MOLT-4 leukemia
  TGI: 28.6 µM
MDA-MB-435
  TGI: 32.2 µM
MALME-3M melanoma
  TGI: 31.8 µM
NCI/ADR-RES ovarian
  TGI: 44 µM
K-562 leukemia
  TGI: 53.4 µM
SF-268 CNS
  TGI: 35.4 µM
T-47D breast
  TGI: 14.9 µM
U251 CNS
  TGI: 30.8 µM
RPMI-8226 leukemia
  TGI: 39.2 µM
OVCAR-3 ovarian
  TGI: 29.3 µM
UACC-62 melanoma
  TGI: 36.8 µM
SF-295 CNS
  TGI: 29.9 µM
SF-539 CNS
  TGI: 31 µM
NCI-H522 lung
  TGI: 32.6 µM
OVCAR-8 ovarian
  TGI: 46.6 µM
SK-MEL-28 melanoma
  TGI: 31.7 µM
SN12C renal
  TGI: 34.1 µM
UO-31 renal
  TGI: 27.2 µM
OVCAR-4 ovarian
  TGI: 37 µM
ACHN renal
  TGI: 30.9 µM
SW-620 colon
  TGI: 37.8 µM
SNB-19 CNS
  TGI: 33.9 µM
SK-MEL-5 melanoma
  TGI: 32.1 µM
UACC-257 melanoma
  TGI: 33.6 µM
MCF7 breast
  TGI: 44.2 µM
DU-145 prostate
  TGI: 31.7 µM
786-0 renal
  TGI: 32 µM
A549 NSCLC
  TGI: 33.8 µM
SR leukemia
  TGI: 34.9 µM
CCRF-CEM leukemia
  TGI: 70.9 µM
COLO 205 colon
  TGI: 31.1 µM
LOX IMVI melanoma
  TGI: 33.1 µM
MDA-MB-231 breast
  TGI: 30.4 µM
TK-10 renal
  TGI: 35.9 µM
NCI-H460 lung
  TGI: 32 µM
CAKI-1 renal
  TGI: 35.5 µM
HL-60(TB) leukemia
  TGI: 66.7 µM
MDA-N
  TGI: 33.6 µM
RXF 393 renal
  TGI: 27.4 µM
OVCAR-5 ovarian
  TGI: 31.6 µM
A498 renal
  TGI: 36 µM
PC-3 prostate
  TGI: 38.1 µM
SK-MEL-2 melanoma
  TGI: 39.3 µM
HT29 colon
  TGI: 33.3 µM
IGROV1 ovarian
  TGI: 33 µM
NCI-H226 lung
  TGI: 33.5 µM

## C[C@]12CC[C@@H]3c4ccc(O)cc4CC[C@H]3[C@@H]1C/C(=C\c1ccncc1)C2=O
HCT-15 colon
  TGI: > 100 µM
M14 melanoma
  TGI: > 100 µM
HCC-2998 colon
  TGI: > 100 µM
HOP-92 NSCLC
  TGI: > 100 µM
EKVX NSCLC
  TGI: > 100 µM
HS 578T breast
  TGI: 62.7 µM
KM12 colon
  TGI: 37.6 µM
NCI-H23 lung
  TGI: > 100 µM
HOP-62 NSCLC
  TGI: > 100 µM
SNB-75 CNS
  TGI: > 100 µM
MOLT-4 leukemia
  TGI: > 100 µM
MDA-MB-435
  TGI: 74.9 µM
MALME-3M melanoma
  TGI: 54.8 µM
NCI/ADR-RES ovarian
  TGI: 60.1 µM
K-562 leukemia
  TGI: > 100 µM
SF-268 CNS
  TGI: > 100 µM
T-47D breast
  TGI: > 100 µM
SK-OV-3 ovarian
  TGI: > 100 µM
U251 CNS
  TGI: > 100 µM
RPMI-8226 leukemia
  TGI: > 100 µM
OVCAR-3 ovarian
  TGI: 50.5 µM
UACC-62 melanoma
  TGI: 50.9 µM
SF-295 CNS
  TGI: > 100 µM
SF-539 CNS
  TGI: 28.9 µM
OVCAR-8 ovarian
  TGI: 56.3 µM
SK-MEL-28 melanoma
  TGI: > 100 µM
UO-31 renal
  TGI: > 100 µM
OVCAR-4 ovarian
  TGI: > 100 µM
ACHN renal
  TGI: > 100 µM
SW-620 colon
  TGI: > 100 µM
SNB-19 CNS
  TGI: > 100 µM
SK-MEL-5 melanoma
  TGI: 27.9 µM
UACC-257 melanoma
  TGI: > 100 µM
MCF7 breast
  TGI: > 100 µM
DU-145 prostate
  TGI: 91.6 µM
A549 NSCLC
  TGI: > 100 µM
SR leukemia
  TGI: > 100 µM
CCRF-CEM leukemia
  TGI: > 100 µM
COLO 205 colon
  TGI: > 100 µM
LOX IMVI melanoma
  TGI: 58.9 µM
MDA-MB-231 breast
  TGI: > 100 µM
TK-10 renal
  TGI: > 100 µM
NCI-H460 lung
  TGI: > 100 µM
CAKI-1 renal
  TGI: > 100 µM
HL-60(TB) leukemia
  TGI: 68 µM
MDA-N
  TGI: > 100 µM
RXF 393 renal
  TGI: > 100 µM
OVCAR-5 ovarian
  TGI: > 100 µM
A498 renal
  TGI: 91.4 µM
PC-3 prostate
  TGI: > 100 µM
SK-MEL-2 melanoma
  TGI: 48.7 µM
HT29 colon
  TGI: 72.2 µM
IGROV1 ovarian
  TGI: 68.3 µM
NCI-H226 lung
  TGI: 68.6 µM
